This note sets out measurements from patent publication US8822449B2, “Substituted aminoindanes and analogs thereof, and the pharmaceutical use thereof” (Sanofi, priority 2008, dated 2014).

Structures are written as SMILES. Read-outs that look alike come from different tables or passages of the source.

In the assay the target is T1, sodium-proton exchanger of subtype 3 (NHE3) (Homo sapiens, UniProt P48764).
T1 construct: expressed in transfected cells
T1 sequence (P48764 26-834): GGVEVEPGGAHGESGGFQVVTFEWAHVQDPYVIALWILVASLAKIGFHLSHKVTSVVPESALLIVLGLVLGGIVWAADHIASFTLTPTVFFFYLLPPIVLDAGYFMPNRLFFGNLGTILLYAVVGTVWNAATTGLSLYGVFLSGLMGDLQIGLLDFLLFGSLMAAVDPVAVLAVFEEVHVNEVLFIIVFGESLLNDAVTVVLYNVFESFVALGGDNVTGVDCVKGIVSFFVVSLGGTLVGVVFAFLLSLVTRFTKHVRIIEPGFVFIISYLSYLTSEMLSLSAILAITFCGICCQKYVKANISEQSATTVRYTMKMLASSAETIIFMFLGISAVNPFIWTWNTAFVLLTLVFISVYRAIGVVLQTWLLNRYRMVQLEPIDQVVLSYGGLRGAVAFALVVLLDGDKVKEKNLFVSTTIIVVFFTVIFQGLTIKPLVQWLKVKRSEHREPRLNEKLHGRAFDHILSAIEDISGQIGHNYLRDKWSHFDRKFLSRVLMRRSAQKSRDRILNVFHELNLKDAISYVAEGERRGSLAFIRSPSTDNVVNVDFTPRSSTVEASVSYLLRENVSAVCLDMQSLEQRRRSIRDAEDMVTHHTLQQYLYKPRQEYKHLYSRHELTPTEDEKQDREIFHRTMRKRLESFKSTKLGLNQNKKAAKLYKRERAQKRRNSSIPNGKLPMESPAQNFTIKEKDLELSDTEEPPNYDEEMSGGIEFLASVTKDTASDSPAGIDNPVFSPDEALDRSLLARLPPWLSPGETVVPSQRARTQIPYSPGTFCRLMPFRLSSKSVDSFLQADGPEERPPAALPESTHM
Description: Recovery of intracellular pH (pHi) after acidification in LAP1 cells stably expressing NHE3 (BCECF fluorescence, FLIPR). It counts as cell-based. To be noted: LAP1 cells stably expressing NHE3, pH recovery after acidification, range 1 is % inhibition at 10 μM.

Setting [1] is: read-out: Activity range (inhibitory effect on NHE3).

With `N[C@@H]1CCCN([C@H]2CCc3ccccc3[C@@H]2Oc2ccc(-n3ccnc3)cc2)C1` (racemic) [Example 71, (R)-1-[rac-trans-(1,2)-1-(4-imidazol-1-ylphenoxy)-1,2,3,4-tetrahydronaphthalen-2-yl]piperidin-3-ylamine], under setting [1], the IC50 is 1000 to 10000 nM.

With `CN(C)[C@H]1Cc2c(Cl)cc(Cl)cc2[C@@H]1Oc1ccc(-n2ccnc2)cc1` (racemic) [Example 216, [rac-trans-(1,2)-4,6-dichloro-1-(4-imidazol-1-ylphenoxy)indan-2-yl]dimethylamine], the inhibition at 10 µM under setting [1] lay in the range of 20 to 50%. For `Cn1ccn(-c2ccc(F)c(O[C@H]3c4cc(F)cc(F)c4C[C@@H]3N3CC[C@@H](O)C3)c2)c1=O` [Example 317, 1-{3-[(1S,2S)-4,6-difluoro-2-((R)-3-hydroxypyrrolidin-1-yl)indan-1-yloxy]-4-fluorophenyl}-3-methyl-1,3-dihydroimidazol-2-one], the IC50 under setting [1] fell in the range of 1000 to 10000 nM.

As to `CC(=O)Nc1cccc(O[C@H]2c3cc(Cl)cc(Cl)c3C[C@@H]2N2CCCNCC2)c1` (racemic) [Example 644, N-[3-(rac-trans-(1,2)-4,6-dichloro-2-[1,4]diazepan-1-ylindan-1-yloxy)phenyl]acetamide], the IC50 under setting [1] is < 1000 nM.

Take `NCC1CCN([C@@H]2Cc3ccccc3[C@H]2Oc2ccc(-n3cncn3)cc2)C1` (mixture of isomers) [Example 618, C-{1-[rac-trans-(1,2)-1-(4-[1,2,4]triazol-1-ylphenoxy)indan-2-yl]pyrrolidin-3-yl}methylamine]: the IC50 under setting [1] was 1000 to 10000 nM.

For the molecule `Nc1ccc2c(O[C@H]3c4ccccc4CC[C@@H]3N3CCC[C@H](N)C3)cccc2c1` (racemic) [Example 189, (S)-1-[rac-trans-(1,2)-1-(6-aminonaphthalen-1-yloxy)-1,2,3,4-tetrahydronaphthalen-2-yl]piperidin-3-ylamine], the IC50 under setting [1] was 1000 to 10000 nM. Still for that read-out and setting: as for `N#Cc1ccc(O[C@@H]2c3ccccc3C[C@H]2N2CCC(CN)CC2)cc1Cl` (racemic) [Example 546, 4-[rac-trans-(1,2)-2-(4-aminomethylpiperidin-1-yl)indan-1-yloxy]-2-chlorobenzonitrile], the figure is 1000 to 10000 nM. For `NS(=O)(=O)c1ccc(O[C@H]2c3ccccc3C[C@@H]2N2CCCCC2)cc1` (racemic) [Example 465, 4-(rac-trans-(1,2)-2-piperidin-1-ylindan-1-yloxy)benzenesulfonamide], under setting [1], the IC50 was < 1000 nM. In the case of `c1ccc2c(c1)CC[C@H](N1CCOCC1)[C@H]2Oc1ccc2ccncc2c1` (racemic) [Example 588, 7-(rac-trans-(1,2)-2-morpholin-4-yl-1,2,3,4-tetrahydronaphthalen-1-yloxy)isoquinoline], the inhibition at 10 µM under setting [1] lay in the range of 20 to 50%. For `O=S1(=O)CCCN1c1cccc(O[C@H]2c3cc(Cl)cc(Cl)c3C[C@@H]2N2CC[C@@H](O)C2)c1` [Example 123, (R)-1-{trans-(1S,2S)-4,6-dichloro-1-[3-(1,1-dioxo-1lambda6-isothiazolidin-2-yl)phenoxy]indan-2-yl}pyrrolidin-3-ol], the IC50 under setting [1] was in the range of 1000 to 10000 nM. The same measure, in the same setting: as for `NCC1CCN([C@@H]2Cc3ccccc3[C@H]2Oc2ccnc3ccccc23)CC1` (racemic) [Example 622, C-{1-[rac-trans-(1,2)-1-(quinolin-4-yloxy)indan-2-yl]piperidin-4-yl}methylamine], the figure is 1000 to 10000 nM; as for `COCCN1CCCN([C@H]2Cc3c(Cl)cc(Cl)cc3[C@@H]2Oc2ccc(S(C)(=O)=O)cc2)CC1` [Example 304, 1-[trans-(1S,2S)-4,6-dichloro-1-(4-methanesulfonylphenoxy)indan-2-yl]-4-(2-methoxyethyl)-[1,4]diazepane], < 1000 nM; as for `CN1CCN(c2ccc(O[C@H]3c4cc(Cl)cc(Cl)c4C[C@@H]3N3CC[C@@H](O)C3)c(F)c2)C1=O` [Example 330, 1-{4-[trans-(1S,2S)-4,6-dichloro-2-((R)-3-hydroxypyrrolidin-1-yl)indan-1-yloxy]-3-fluorophenyl}-3-methylimidazolidin-2-one], < 1000 nM. As for `CN1CCN([C@H]2Cc3c(Cl)cc(Cl)cc3[C@@H]2Oc2ccc(-n3cncn3)cc2)CC1` [Example 296, 1-[trans-(1S,2S)-4,6-dichloro-1-(4-[1,2,4]triazol-1-ylphenoxy)indan-2-yl]-4-methylpiperazine], the inhibition at 10 µM under setting [1] was 20 to 50%. Consider `CS(=O)(=O)c1nccn1-c1ccc(O[C@H]2c3cc(Cl)cc(Cl)c3C[C@@H]2N2CC[C@@H](O)C2)c(F)c1` [Example 739, (R)-1-{trans-(1S,2S)-4,6-Dichloro-1-[2-fluoro-4-(2-methanesulfonyl-imidazol-1-yl)-phenoxy]-indan-2-yl}-pyrrolidin-3-ol], for which the IC50 under setting [1] is < 1000 nM. Take `N#Cc1ccc(O[C@H]2c3ccccc3CC[C@@H]2N2CCC[C@@H](N)C2)c(F)c1` (racemic) [Example 515, 4-[rac-trans-(1,2)-2-((R)-3-aminopiperidin-1-yl)-1,2,3,4-tetrahydronaphthalen-1-yloxy]-3-fluorobenzonitrile]: under setting [1], the IC50 was in the range of 1000 to 10000 nM. In the case of `CO[C@@H]1CCN(C2Cc3ccccc3C2Oc2cccc(NC(C)=O)c2)C1` (mixture of isomers) [Example 682, N-{3-[rac-trans-(1,2)-2-((R)-3-methoxypyrrolidin-1-yl)indan-1-yloxy]phenyl}acetamide], the IC50 under setting [1] was in the range of 1000 to 10000 nM. Turning to `CS(=O)(=O)c1ccc(O[C@H]2c3cc(Cl)cc(Cl)c3C[C@@H]2N2CCCNCC2)c(Cl)c1` [Example 295, 1-[trans-(1S,2S)-4,6-dichloro-1-(2-chloro-4-methanesulfonylphenoxy)indan-2-yl]-[1,4]diazepane], under setting [1], the IC50 is < 1000 nM.

`N[C@H]1CCCN([C@H]2CCc3ccccc3[C@@H]2Oc2ccnc(Cl)c2)C1` (racemic) [Example 153, (S)-1-[rac-trans-(1,2)-1-(2-chloropyridin-4-yloxy)-1,2,3,4-tetrahydronaphthalen-2-yl]piperidin-3-ylamine]: the inhibition at 10 µM under setting [1] lay in the range of 20 to 50%. As for `CN(C)S(=O)(=O)c1ccc(O[C@H]2c3ccccc3C[C@@H]2N2CCCC2)c(Cl)c1` (racemic) [Example 447, 3-chloro-N,N-dimethyl-4-(rac-trans-(1,2)-2-pyrrolidin-1-ylindan-1-yloxy)benzenesulfonamide], the IC50 (Activity range (inhibitory effect on NHE3)) is < 1000 nM. With `Cc1nnc(C)n1-c1ccc(O[C@H]2c3cc(Cl)ccc3C[C@@H]2N2CC[C@@H](F)C2)c(Cl)c1` [Example 558, 4-{3-chloro-4-[trans-(1S,2S)-6-chloro-2-((R)-3-fluoropyrrolidin-1-yl)indan-1-yloxy]phenyl}-3,5-dimethyl-4H-[1,2,4]triazole], the IC50 under setting [1] was < 1000 nM. Regarding `NCCc1c[nH]c2ccc(O[C@H]3c4ccccc4CC[C@@H]3N3CCC[C@H](N)C3)cc12` (racemic) [Example 201, (S)-1-{rac-trans-(1,2)-1-[3-(2-aminoethyl)-1H-indol-5-yloxy]-1,2,3,4-tetrahydronaphthalen-2-yl}piperidin-3-ylamine], the IC50 under setting [1] fell in the range of 1000 to 10000 nM. Still for that read-out and setting: under `NCC1CCN([C@@H]2Cc3ccccc3[C@H]2Oc2ccc3c(c2)OCO3)CC1` (racemic) [Example 620, C-{1-[rac-trans-(1,2)-1-(benzo[1,3]dioxol-5-yloxy)indan-2-yl]piperidin-4-yl}methylamine] stands 1000 to 10000 nM. For the molecule `CS(=O)(=O)c1ccc(O[C@@H]2c3ccccc3C[C@@H]2NC2CCC2)cc1` (racemic) [Example 706, Cyclobutyl-[rac-cis-(1,2)-1-(4-methanesulfonyl-phenoxy)-indan-2-yl]-amine], the inhibition at 10 µM under setting [1] is 20 to 50%.
